According to ChEMBL document CHEMBL1158702, “Cytotoxic 4-phenylcoumarins from the leaves of Marila pluricostata” (2005):
Values after ≈ are worked out from the molar mass of the structure shown.

Key:
Assay type in all cases: functional
NCI-H460 = experiment: Cytotoxicity against human H460 cells
SF-268 = experiment: Cytotoxicity against human SF268 cells
MCF7 = experiment: Cytotoxicity against human MCF7 cells

Row | Structure (SMILES) | GI50 (NCI-H460) | GI50 (SF-268) | GI50 (MCF7)
1 | CCC(C)C(=O)c1c(O)c(CC=C(C)C)c2oc(=O)cc(-c3ccccc3)c2c1O (configuration not stated) | 0.1 µg/mL (≈ 0.246 µM) | 0.1 µg/mL (≈ 0.246 µM) | 0.2 µg/mL (≈ 0.492 µM)
2 | COc1c(C(=O)CC(C)C)c(O)c(CC=C(C)C)c2oc(=O)cc(-c3ccccc3)c12 | 0.5 µg/mL (≈ 1.19 µM) | 0.4 µg/mL (≈ 0.951 µM) | 0.4 µg/mL (≈ 0.951 µM)
3 | CC(C)=CCc1c(O)cc(O)c2c(-c3ccccc3)cc(=O)oc12 | 4.4 µg/mL (≈ 13.6 µM) | 4.8 µg/mL (≈ 14.9 µM) | 3.4 µg/mL (≈ 10.5 µM)
4 | CCC(C)C(=O)c1c2c(c3oc(=O)cc(-c4ccccc4)c3c1O)C=CC(C)(C)O2 (configuration not stated) | > 10 µg/mL | > 10 µg/mL | 9.6 µg/mL (≈ 23.7 µM)
5 | CC1(C)CCc2c(cc(O)c3c(-c4ccccc4)cc(=O)oc23)O1 | 6.7 µg/mL (≈ 20.8 µM) | 7.8 µg/mL (≈ 24.2 µM) | 5.7 µg/mL (≈ 17.7 µM)
6 | CCC(=O)c1c2c(c3oc(=O)cc(-c4ccccc4)c3c1O)CCC(C)(C)O2 | 5.7 µg/mL (≈ 15.1 µM) | 6.8 µg/mL (≈ 18 µM) | 4.7 µg/mL (≈ 12.4 µM)
7 | CCC(C)C(=O)c1c2c(c3oc(=O)cc(-c4ccccc4)c3c1O)C[C@@H](C(C)(C)O)O2 (some centres not stated) | 4.4 µg/mL (≈ 10.4 µM) | 4.8 µg/mL (≈ 11.4 µM) | 3.4 µg/mL (≈ 8.05 µM)
8 | CCC(C)C(=O)c1c(O)c(CC=C(C)C)c(O)c2c(-c3ccccc3)cc(=O)oc12 (configuration not stated) | 0.3 µg/mL (≈ 0.738 µM) | 0.1 µg/mL (≈ 0.246 µM) | 0.2 µg/mL (≈ 0.492 µM)
9 | CC(C)CC(=O)c1c2c(c3oc(=O)cc(-c4ccccc4)c3c1O)C[C@@H](C(C)(C)O)O2 [CYCLOMAMMEISIN] | 4.6 µg/mL (≈ 10.9 µM) | 5.2 µg/mL (≈ 12.3 µM) | 4.2 µg/mL (≈ 9.94 µM)
10 | C=C(C)C(O)Cc1c(O)c(C(=O)CC(C)C)c(O)c2c(-c3ccccc3)cc(=O)oc12 (configuration not stated) [DISPARINOL A] | 0.6 µg/mL (≈ 1.42 µM) | 0.5 µg/mL (≈ 1.18 µM) | 0.9 µg/mL (≈ 2.13 µM)
11 | CC(C)CC(=O)c1c(O)cc(O)c2c(-c3ccccc3)cc(=O)oc12 [ISODISPAR B] | 1.9 µg/mL (≈ 5.62 µM) | 1.8 µg/mL (≈ 5.32 µM) | 1.5 µg/mL (≈ 4.43 µM)
12 | CC(C)=CCc1c(O)c(C(=O)CC(C)C)c2oc(=O)cc(-c3ccccc3)c2c1O [ISOMAMMEISIN] | 0.8 µg/mL (≈ 1.97 µM) | 0.6 µg/mL (≈ 1.48 µM) | 0.7 µg/mL (≈ 1.72 µM)
13 | CC(C)=CCc1c(O)c(C(=O)C(C)C)c2oc(=O)cc(-c3ccccc3)c2c1O [ISOMESUOL] | 0.6 µg/mL (≈ 1.53 µM) | 0.6 µg/mL (≈ 1.53 µM) | 0.7 µg/mL (≈ 1.78 µM)
14 | CC(C)CC(=O)c1c2c(c3oc(=O)cc(-c4ccccc4)c3c1O)C=CC(C)(C)O2 [MAMMEIGIN] | > 10 µg/mL | > 10 µg/mL | > 10 µg/mL
15 | CC(=O)Oc1c(C(=O)CC(C)C)c(OC(C)=O)c2c(-c3ccccc3)cc(=O)oc2c1CC=C(C)C [MAMMEISIN DIACETATE] | 0.6 µg/mL | 0.5 µg/mL | 0.6 µg/mL
16 | CC(C)=CCc1c(O)c(C(=O)CC(C)C)c(O)c2c(-c3ccccc3)cc(=O)oc12 [MAMMEISIN] | 0.2 µg/mL (≈ 0.492 µM) | 0.1 µg/mL (≈ 0.246 µM) | 0.2 µg/mL (≈ 0.492 µM)
17 | CC(C)C(=O)c1c2c(c3oc(=O)cc(-c4ccccc4)c3c1O)C=CC(C)(C)O2 [MESUAGIN] | > 10 µg/mL | > 10 µg/mL | > 10 µg/mL
18 | CC(C)C(=O)c1c2c(c3oc(=O)cc(-c4ccccc4)c3c1O)C[C@@H](C(C)(C)O)O2 [MESUOL CYCLO F] | 6.1 µg/mL (≈ 14.9 µM) | 6.4 µg/mL (≈ 15.7 µM) | 5.8 µg/mL (≈ 14.2 µM)
19 | CC(C)=CCc1c(O)c(C(=O)C(C)C)c(O)c2c(-c3ccccc3)cc(=O)oc12 [MESUOL] | 0.3 µg/mL (≈ 0.764 µM) | 0.1 µg/mL (≈ 0.255 µM) | 0.2 µg/mL (≈ 0.51 µM)
